Each structure is given as a SMILES string. “Also recorded” adds a separate entry of the source.

In assay [1] the test system is Crizotinib resistant EML4-ALK A549 NSCLC cells. The experiment in a line: CCK-8 proliferation assay of Crizotinib naive or resistant EML4-ALK A549 NSCLC cells. The class given is cell-based. Conditions: 4 days treatment, normalized to 0 nM control. As to the method:
(§1) Cells were treated with an array of % dilutions of LNS8801 for 4 days with 4 technical replicates for each condition (500 nM, 250 nM, 125 nM, 62.5 nM, 31.25 nM, 15.63 nM, 7.81 nM, 3.91 nM, 1.95 nM, 0.98 nM and 0 nM). After 4 days, relative viable cells were determined by incubating cells with CCK-8 proliferation dye for 1 hour, and measuring absorbance at 450 nm. Relative cell numbers were calculated by subtracting baseline absorbance of the media followed by normalization to the 0 nM treated control wells.
After 4 days, relative viable cells were determined by incubating cells with CCK-8 proliferation dye for 1 hour, and measuring absorbance at 450 nm. Relative cell numbers were calculated by subtracting baseline absorbance of the media followed by normalization to the 0 nM treated control wells.
A general note: Tetrazolium assays rely on reduction of a dye to a coloured formazan, in cell work by metabolically active cells.

For assay [2], the system named is EML4-ALK A549 NSCLC cells. The experiment in a line: CCK-8 proliferation assay of parental and EML4-ALK A549 NSCLC cells. The class given is cell-based. Conditions: EML4-ALK A549 cells compared with parental (control) A549 cells, 4 days treatment, 0.98-500 nM. As for the experimental part:
as §1, with “Parental cells and EML4-ALK A549 NSCLC cells (5,000 cells) were plated in a 96-well tissue culture plate. Cells” for “Cells”, “½” for “%”, “[…]” for “15.63”, “[…],” for “3.91 nM,”, “Incubating” for “incubating”, “hour” for “hour,”

Consider `CC(=O)c1ccc2c(c1)[C@@H]1C=CC[C@@H]1[C@H](c1cc3c(cc1Br)OCO3)N2` [LNS8801], for which the “relative viability of Crizotinib-resistant cells” value in assay [1] was “able to effectively reduce viability; also recorded: has activity in the setting of ALK-inhibitor resistance”. Further, the “cell viability (relative viable cells)” value in assay [2] is recorded as “effectively reduced EML4-ALK A549 cell viability over control A549 cells; also recorded: ALK+ NSCLC cells are more sensitive to LNS8801 than isogenic controls”.

(Values after patent US20240376547A1, “ONCOLOGIC VARIATIONS ASSOCIATED WITH CANCER AND METHODS OF TREATMENT” (LINNAEUS THERAPEUTICS, INC., priority 2021, published 2024).)
